# From ChEMBL document CHEMBL1139192, “Novel bis(indolyl)maleimide pyridinophanes that are potent, selective inhibitors of glycogen synthase kinase-3” (Bioorg Med Chem Lett, 2007)
# Legend:
# [1] = biological target: 3-phosphoinositide-dependent protein kinase 1 (Homo sapiens) (UniProt O15530); experiment: Inhibition of human PDK1 at 1 uM relative to control; values are per cent of control
# [2] = biological target: T1, Serine/threonine-protein kinase Sgk1 (Homo sapiens) (UniProt O00141); experiment: Inhibition of human SGK at 1 uM relative to control; values are per cent of control
# T1 sequence (whole entry): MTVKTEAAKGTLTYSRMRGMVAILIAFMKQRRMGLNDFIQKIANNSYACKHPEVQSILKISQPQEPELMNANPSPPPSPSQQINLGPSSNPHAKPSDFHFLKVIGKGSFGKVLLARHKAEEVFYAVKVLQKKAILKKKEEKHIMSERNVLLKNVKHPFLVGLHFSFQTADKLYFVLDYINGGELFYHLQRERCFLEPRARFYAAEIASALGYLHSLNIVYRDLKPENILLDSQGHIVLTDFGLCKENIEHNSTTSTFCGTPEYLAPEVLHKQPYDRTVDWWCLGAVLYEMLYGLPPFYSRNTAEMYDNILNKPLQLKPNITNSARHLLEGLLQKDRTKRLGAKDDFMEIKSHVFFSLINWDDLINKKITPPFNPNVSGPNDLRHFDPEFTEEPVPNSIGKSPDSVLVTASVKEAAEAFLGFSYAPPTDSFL
# [3] = biological target: T2, Ephrin type-B receptor 4 (Homo sapiens) (UniProt P54760); experiment: Residual activity of human EphB4 at 1 uM relative to control
# T2 sequence (whole entry): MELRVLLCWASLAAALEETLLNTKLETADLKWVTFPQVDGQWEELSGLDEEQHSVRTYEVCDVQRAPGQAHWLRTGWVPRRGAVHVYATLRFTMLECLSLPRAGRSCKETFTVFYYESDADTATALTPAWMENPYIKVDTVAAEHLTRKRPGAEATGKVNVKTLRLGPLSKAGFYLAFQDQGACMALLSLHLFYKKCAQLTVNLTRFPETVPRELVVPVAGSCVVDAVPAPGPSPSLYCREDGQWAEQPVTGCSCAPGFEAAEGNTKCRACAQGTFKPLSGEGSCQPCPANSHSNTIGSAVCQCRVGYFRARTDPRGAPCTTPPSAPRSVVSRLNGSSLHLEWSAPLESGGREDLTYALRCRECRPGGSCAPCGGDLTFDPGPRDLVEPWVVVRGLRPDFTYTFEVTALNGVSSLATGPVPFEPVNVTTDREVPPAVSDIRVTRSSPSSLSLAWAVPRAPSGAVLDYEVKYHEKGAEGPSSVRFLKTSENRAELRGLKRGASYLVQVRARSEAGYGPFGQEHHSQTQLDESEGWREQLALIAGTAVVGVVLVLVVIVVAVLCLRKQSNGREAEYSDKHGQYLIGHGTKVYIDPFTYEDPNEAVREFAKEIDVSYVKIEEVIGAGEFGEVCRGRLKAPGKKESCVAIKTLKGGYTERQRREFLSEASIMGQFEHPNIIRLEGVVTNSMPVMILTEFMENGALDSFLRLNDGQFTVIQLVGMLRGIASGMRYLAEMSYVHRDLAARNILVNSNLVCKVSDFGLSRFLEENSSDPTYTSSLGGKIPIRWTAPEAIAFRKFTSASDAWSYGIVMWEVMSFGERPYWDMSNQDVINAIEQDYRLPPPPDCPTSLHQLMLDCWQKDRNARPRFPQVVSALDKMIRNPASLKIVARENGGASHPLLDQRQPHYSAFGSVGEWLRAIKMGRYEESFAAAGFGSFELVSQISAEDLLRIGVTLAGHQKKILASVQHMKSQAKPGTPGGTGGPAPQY
# Rattus norvegicus = species on record: Rattus norvegicus; experiment: Inhibition of rat AMPK at 1 uM relative to control; values are per cent of control
# [4] = biological target: Tyrosine-protein kinase BTK (Homo sapiens) (UniProt Q06187); experiment: Inhibition of human BTK at 1 uM relative to control; values are per cent of control
# [5] = biological target: Epidermal growth factor receptor (Homo sapiens) (UniProt P00533); experiment: Inhibition of human EGFR at 1 uM relative to control; values are per cent of control
# Homo sapiens = species on record: Homo sapiens; experiment: Inhibition of human PKA at 1 uM relative to control; values are per cent of control
# [6] = system: Tyrosine-protein kinase ABL1 (Homo sapiens), P00519 [T315I]; experiment: Residual activity of human Abl T315I mutant at 1 uM relative to control
# [7] = biological target: Serine/threonine-protein kinase N2 (Homo sapiens) (UniProt Q16513); experiment: Residual activity of human PRK2 at 1 uM relative to control
# [8] = biological target: Ribosomal protein S6 kinase alpha-1 (Rattus norvegicus) (UniProt Q63531); experiment: Inhibition of rat Rsk1 at 1 uM relative to control; values are per cent of control
# [9] = biological target: Rho-associated protein kinase 2 (Homo sapiens) (UniProt O75116); experiment: Inhibition of human ROCK2 at 1 uM relative to control; values are per cent of control
# [10] = biological target: T3, MAP kinase-activated protein kinase 5 (Homo sapiens) (UniProt Q8IW41); experiment: Inhibition of human PRAK at 1 uM relative to control; values are per cent of control
# T3 sequence (whole entry): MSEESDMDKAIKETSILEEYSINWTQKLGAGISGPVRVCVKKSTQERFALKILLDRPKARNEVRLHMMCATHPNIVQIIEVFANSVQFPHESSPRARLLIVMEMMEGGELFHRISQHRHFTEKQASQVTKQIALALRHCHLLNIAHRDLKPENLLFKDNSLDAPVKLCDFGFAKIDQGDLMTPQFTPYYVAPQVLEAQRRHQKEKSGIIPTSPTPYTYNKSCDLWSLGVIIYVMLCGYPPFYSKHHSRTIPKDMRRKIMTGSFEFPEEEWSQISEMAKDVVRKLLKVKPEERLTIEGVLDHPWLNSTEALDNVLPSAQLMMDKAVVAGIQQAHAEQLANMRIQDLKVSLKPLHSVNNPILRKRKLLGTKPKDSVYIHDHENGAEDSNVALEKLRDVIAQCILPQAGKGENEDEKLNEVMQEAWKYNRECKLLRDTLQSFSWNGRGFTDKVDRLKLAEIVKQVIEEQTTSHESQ
# [11] = biological target: Tyrosine-protein kinase Yes (Homo sapiens) (UniProt P07947); experiment: Inhibition of human Yes kinase at 1 uM relative to control; values are per cent of control
# [12] = biological target: Tyrosine-protein kinase Lyn (Homo sapiens) (UniProt P07948); experiment: Inhibition of human Lyn at 1 uM relative to control; values are per cent of control
# Chain of Tyrosine-protein kinase Lyn (Homo sapiens) (P07948 2-512 limits assumed): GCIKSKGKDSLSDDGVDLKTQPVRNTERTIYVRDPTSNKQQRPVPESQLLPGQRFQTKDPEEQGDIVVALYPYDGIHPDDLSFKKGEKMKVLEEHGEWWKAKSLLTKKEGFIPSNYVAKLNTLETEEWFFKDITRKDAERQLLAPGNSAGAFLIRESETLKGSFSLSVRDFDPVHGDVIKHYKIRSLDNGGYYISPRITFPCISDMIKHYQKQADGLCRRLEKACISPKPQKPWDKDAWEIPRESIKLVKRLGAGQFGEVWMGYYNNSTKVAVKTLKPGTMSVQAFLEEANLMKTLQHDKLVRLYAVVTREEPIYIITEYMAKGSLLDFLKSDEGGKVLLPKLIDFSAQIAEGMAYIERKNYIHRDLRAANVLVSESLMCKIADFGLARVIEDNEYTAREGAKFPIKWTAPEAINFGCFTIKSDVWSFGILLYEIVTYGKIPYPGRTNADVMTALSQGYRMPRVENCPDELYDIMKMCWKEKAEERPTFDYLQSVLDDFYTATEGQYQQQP
# Chain of Tyrosine-protein kinase BTK (Homo sapiens) (Q06187 whole entry): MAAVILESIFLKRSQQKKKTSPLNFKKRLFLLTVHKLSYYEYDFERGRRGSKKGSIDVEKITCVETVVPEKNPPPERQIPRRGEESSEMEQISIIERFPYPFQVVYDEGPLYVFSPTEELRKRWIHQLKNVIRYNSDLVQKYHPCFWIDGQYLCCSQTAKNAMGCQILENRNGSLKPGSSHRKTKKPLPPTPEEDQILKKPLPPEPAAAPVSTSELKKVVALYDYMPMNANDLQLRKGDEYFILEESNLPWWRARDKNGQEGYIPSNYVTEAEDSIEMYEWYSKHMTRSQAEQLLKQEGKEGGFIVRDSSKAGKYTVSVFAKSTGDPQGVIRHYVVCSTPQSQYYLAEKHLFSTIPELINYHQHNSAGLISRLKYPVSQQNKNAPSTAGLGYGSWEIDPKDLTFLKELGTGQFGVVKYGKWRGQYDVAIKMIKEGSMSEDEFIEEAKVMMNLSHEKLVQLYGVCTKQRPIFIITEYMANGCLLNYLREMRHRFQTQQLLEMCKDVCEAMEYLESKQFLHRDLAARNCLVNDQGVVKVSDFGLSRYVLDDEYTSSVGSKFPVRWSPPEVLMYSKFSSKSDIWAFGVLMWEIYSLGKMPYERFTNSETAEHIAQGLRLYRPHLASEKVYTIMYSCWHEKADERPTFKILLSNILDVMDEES
# Chain of Tyrosine-protein kinase Yes (Homo sapiens) (P07947 2-543 limits assumed): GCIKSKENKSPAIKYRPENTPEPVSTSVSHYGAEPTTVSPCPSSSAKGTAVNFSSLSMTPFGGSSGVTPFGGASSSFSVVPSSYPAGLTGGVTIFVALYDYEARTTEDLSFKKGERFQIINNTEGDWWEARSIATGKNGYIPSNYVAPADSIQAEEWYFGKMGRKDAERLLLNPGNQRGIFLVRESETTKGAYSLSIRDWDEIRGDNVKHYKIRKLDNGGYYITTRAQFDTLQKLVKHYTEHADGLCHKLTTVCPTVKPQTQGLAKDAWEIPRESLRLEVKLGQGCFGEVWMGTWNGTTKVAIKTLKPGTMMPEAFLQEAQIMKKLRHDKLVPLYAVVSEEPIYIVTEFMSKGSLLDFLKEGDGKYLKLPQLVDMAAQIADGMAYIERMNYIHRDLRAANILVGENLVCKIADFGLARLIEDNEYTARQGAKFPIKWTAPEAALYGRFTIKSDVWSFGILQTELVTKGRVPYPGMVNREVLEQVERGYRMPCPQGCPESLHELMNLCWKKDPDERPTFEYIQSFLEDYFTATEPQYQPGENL
# Chain of Rho-associated protein kinase 2 (Homo sapiens) (O75116 whole entry, looked up): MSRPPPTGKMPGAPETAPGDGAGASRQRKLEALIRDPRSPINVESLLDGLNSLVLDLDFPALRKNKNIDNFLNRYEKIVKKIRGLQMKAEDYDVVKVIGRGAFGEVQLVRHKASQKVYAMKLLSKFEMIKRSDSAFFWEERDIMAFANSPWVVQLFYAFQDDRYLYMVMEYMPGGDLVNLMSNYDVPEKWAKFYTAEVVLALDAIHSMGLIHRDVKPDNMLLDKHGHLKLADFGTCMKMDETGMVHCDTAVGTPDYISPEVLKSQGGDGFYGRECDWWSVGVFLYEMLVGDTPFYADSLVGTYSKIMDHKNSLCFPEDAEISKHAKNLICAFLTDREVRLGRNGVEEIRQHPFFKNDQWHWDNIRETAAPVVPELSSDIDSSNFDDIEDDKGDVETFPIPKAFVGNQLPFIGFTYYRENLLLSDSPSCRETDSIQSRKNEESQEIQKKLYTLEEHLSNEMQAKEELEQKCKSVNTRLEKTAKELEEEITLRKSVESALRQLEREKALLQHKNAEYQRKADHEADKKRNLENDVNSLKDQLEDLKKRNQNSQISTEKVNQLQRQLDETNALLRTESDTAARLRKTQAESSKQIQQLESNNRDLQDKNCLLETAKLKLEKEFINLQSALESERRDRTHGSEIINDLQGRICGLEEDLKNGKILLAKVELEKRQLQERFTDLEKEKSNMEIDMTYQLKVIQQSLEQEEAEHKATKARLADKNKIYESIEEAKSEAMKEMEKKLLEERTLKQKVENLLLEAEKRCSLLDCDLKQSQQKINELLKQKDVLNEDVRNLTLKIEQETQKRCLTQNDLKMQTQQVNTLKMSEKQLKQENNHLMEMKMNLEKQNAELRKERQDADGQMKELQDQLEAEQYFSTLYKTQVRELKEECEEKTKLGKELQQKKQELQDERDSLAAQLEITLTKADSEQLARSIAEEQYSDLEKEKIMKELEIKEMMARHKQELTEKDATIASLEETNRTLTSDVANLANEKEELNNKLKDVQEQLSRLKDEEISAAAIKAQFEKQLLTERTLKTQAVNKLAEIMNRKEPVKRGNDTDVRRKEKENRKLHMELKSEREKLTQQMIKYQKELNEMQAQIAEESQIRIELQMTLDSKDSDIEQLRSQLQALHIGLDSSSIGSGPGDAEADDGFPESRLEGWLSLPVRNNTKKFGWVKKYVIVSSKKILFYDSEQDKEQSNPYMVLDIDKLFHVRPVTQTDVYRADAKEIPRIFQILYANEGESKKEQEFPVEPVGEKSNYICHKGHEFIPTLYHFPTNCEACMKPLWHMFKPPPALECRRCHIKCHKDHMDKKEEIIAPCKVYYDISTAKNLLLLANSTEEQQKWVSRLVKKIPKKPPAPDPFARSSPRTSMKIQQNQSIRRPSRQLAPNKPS
# Chain of Serine/threonine-protein kinase N2 (Homo sapiens) (Q16513 whole entry, looked up): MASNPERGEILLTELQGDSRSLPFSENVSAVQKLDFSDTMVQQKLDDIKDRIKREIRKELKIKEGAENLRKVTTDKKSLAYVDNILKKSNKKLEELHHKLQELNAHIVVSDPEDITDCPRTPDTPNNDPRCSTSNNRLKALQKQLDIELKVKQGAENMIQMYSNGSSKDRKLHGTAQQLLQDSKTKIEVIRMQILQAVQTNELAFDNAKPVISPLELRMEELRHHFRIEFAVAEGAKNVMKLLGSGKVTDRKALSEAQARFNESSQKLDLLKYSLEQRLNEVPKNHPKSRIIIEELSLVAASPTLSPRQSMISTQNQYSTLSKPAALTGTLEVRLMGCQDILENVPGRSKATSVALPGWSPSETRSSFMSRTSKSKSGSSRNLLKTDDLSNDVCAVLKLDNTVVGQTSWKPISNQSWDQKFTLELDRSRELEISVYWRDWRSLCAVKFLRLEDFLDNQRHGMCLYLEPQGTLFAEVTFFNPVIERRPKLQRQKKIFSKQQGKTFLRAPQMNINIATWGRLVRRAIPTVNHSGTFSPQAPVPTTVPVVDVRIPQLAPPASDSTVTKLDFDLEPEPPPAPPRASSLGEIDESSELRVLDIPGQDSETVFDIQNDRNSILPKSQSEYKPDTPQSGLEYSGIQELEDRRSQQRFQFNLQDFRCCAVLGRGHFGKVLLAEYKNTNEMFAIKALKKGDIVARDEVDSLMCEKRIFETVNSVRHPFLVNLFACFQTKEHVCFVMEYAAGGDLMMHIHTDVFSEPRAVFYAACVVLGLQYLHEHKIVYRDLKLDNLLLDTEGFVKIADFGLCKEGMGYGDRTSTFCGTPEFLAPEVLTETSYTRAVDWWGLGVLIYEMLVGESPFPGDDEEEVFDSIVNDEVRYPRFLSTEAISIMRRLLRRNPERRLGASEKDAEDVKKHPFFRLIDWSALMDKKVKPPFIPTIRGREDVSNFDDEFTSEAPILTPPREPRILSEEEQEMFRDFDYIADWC
# Chain of Ribosomal protein S6 kinase alpha-1 (Rattus norvegicus) (Q63531 whole entry): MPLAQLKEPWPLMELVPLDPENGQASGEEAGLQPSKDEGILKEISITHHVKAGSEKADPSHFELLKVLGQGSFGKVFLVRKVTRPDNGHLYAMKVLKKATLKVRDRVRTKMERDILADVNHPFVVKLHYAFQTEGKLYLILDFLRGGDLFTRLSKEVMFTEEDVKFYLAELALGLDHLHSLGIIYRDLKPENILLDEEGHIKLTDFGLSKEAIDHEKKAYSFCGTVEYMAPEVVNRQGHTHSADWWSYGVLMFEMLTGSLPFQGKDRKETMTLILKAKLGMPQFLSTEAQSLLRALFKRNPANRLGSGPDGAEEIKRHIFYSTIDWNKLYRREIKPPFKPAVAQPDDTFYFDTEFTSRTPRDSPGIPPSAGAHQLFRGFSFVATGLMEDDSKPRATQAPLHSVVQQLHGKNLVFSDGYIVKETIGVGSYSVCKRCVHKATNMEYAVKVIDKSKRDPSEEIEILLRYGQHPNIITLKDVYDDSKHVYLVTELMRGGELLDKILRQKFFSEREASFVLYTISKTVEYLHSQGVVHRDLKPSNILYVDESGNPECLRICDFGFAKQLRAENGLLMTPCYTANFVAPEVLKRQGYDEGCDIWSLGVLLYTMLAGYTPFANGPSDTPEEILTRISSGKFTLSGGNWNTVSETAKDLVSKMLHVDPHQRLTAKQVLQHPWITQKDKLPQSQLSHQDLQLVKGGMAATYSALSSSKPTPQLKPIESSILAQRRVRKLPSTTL
Compound,residual activity [1],residual activity [2],residual activity [3],residual activity (Rattus norvegicus),residual activity [4],residual activity [5],residual activity (Homo sapiens),residual activity [6],residual activity [7],residual activity [8],residual activity [9],residual activity [10],residual activity [11],residual activity [12]
O=C1NC(=O)C2=C1c1cn(c3ccccc13)CCCc1ccc(c(N3CCCC3)n1)CCCn1cc2c2ccccc21,100%,93%,100%,99%,104%,104%,102%,103%,126%,67%,104%,102%,43%,78%
CN(C)c1nc2ccc1CCCn1cc(c3ccccc31)C1=C(C(=O)NC1=O)c1cn(c3ccccc13)CC2,115%,93%,89%,101%,105%,94%,90%,100%,106%,37%,110%,88%,96%,107%
CN(C)c1cc2cc(n1)CCCn1cc(c3ccccc31)C1=C(C(=O)NC1=O)c1cn(c3ccccc13)CCC2,104%,105%,103%,101%,106%,96%,95%,79%,113%,7%,103%,96%,79%,76%
O=C1NC(=O)C2=C1c1cn(c3ccccc13)CCCc1cc(nc(N3CCCC3)c1)CCCn1cc2c2ccccc21,107%,109%,109%,105%,106%,108%,104%,77%,110%,5%,107%,101%,58%,87%
